From patent US20220151993A1, “TREATMENT OF ANXIETY AND DEPRESSION” (NEW YORK UNIVERSITY, priority 2020, published 2022)

Assays:
[1] = system: patients with cancer-related psychiatric and existential distress; test: Spielberger State-Trait Anxiety Inventory (STAI), long-term follow-up; type: in vivo, human; conditions: single 0.3 mg/kg dose with psychotherapy; for STAI State Anxiety: baseline 43.94; for STAI Trait Anxiety: baseline 47.81
Protocol: (§1) The present example assesses the long-term effects of a single dose of psilocybin (0.3 mg/kg) in conjunction with psychotherapy in patients with cancer-related psychiatric and existential distress.
(§2) 29 participants were randomly assigned to one of two groups: psilocybin (0.3 mg/kg) on the first medication session followed by niacin (250 mg) on the second session (i.e. psilocybin-first group), or niacin (250 mg) on the first medication session followed by psilocybin (0.3 mg/kg) on the second session (i.e. niacin-first group). Psilocybin and niacin were administered in identically appearing gelatin capsules.
(§3) Participants received three 2-hour preparatory psychotherapy sessions in order to review the purpose and intention of participation in the study, treatment goals, and structure of the treatment sessions. Medications were administered in 8-hour treatment sessions which included a discussion of the participant's subjective experience with the treatment team to consolidate the memory of the experience and to begin the process of post-integrative psychotherapy. Participants also received three 2-hour post-medication integration sessions (repeated after the second dosing session) to further consolidate the memory of the experience and to continue the process of psychological integration. All psychotherapy treatment sessions were delivered by a dyadic therapy team trained in a blend of psychotherapies with an evidence base to support their use in cancer patients (drawing upon principles of palliative care therapy, existential psychotherapy, cognitive-behavioural therapy, psychoanalysis therapy, and transpersonal psychology) and were taught about the safety and clinical pharmacology of psilocybin. Each therapy dyad underwent six confidential one-to-one sessions to build their alliance and exchange ideas about psychedelic therapy. The trial employed a crossover design at seven weeks following the first drug administration, with an outcome assessment at 6.5 months (26 weeks) following the second drug administration (i.e. after the crossover).
(§4) Two long-term follow ups (LTFUs) were carried out to assess the continued effect of psilocybin. Of the original 29 participants, all 16 participants who were not deceased at the time of LTFU were contacted (the remaining 13 participants were deceased). Of the 16 participants who were contacted, 15 agreed to participate in the LTFU and completed measures through a secure online portal. One participant died (from cancer-related complications) after completing the first LTFU and prior to the second LTFU, leaving us with 14 participants at the second LTFU. The first and second LTFUs occurred on average 3.2 years (range 2.3-4.5 years) and 4.5 years (range 3.5-5.5 years) following the participants' psilocybin dosing date, respectively.
Primary outcomes (anxiety and depression) were measured according to the following methods: • Hospital Anxiety and Depression Scale (HADS) (Zigmond and Snaith, 1983)—this is widely used in hospital settings to screen for the severity of anxiety and depression. It contains 14 questions rated on a four-point scale (total score (HAD-T) ranges from 0-56). Subscale scores can be calculated for depression (HADS-D) and anxiety (HADS-A). […] The HADS has shown good reliability (Cronbach's a ranging from 0.80-0.93) and has been well validated (Herrmann, 1997). • Beck Depression Inventory-II (BDI-II) (Beck et al., 1988)—a widely used self-report screening measure for depression. […]

[2] = system: patients with life-threatening cancer; conditions: cited from earlier work
[3] = system: patients with cancer-related psychiatric and existential distress; test: Persisting Effects Questionnaire at second long-term follow-up; type: in vivo, human; conditions: second LTFU (4.5 years, n=14)
Protocol: as §2, §3
Two long-term follow ups (LTFUs) were carried out to assess the continued effect of psilocybin. Of the original 29 participants, all 16 participants who were not deceased at the time of LTFU were contacted (the remaining 13 participants were deceased). Of the 16 participants who were contacted, 15 agreed to participate in the LTFU and completed measures through a secure online portal. One participant died (from cancer-related complications) after completing the first LTFU and prior to the second LTFU, leaving us with 14 participants at the second LTFU. […]
Persisting effects of psilocybin were assessed using the Persisting Effects Questionnaire (Griffiths et al., 2006, 2008) assesses self-rated changes in one's attitude, mood, behavior, and experience of spirituality. […]

[4] = system: patients with cancer-related psychiatric and existential distress; test: Hopelessness Assessment in Illness (HAI), long-term follow-up; type: in vivo, human; conditions: for Hopelessness: single 0.3 mg/kg dose with psychotherapy, baseline 5.75, p < 0.001 vs baseline
Protocol: as §1, §2, §3
Two long-term follow ups (LTFUs) were carried out to assess the continued effect of psilocybin. Of the original 29 participants, all 16 participants who were not deceased at the time of LTFU were contacted (the remaining 13 participants were deceased). […]
(§5) Cancer-related existential distress (demoralization, hopelessness, attitudes and effects associated with disease progression and death) was assessed using the following methods: • The Death Anxiety Scale (DAS) (Templer, 1970)—a 15-item measure that has been used most frequently to assess death anxiety. Items are scored “true” and “false” and then scored as one and zero, respectively. […]

[5] = system: patients with cancer-related psychiatric and existential distress; test: Lasting negative or adverse effects reported during long-term follow-up; type: in vivo, human; conditions: LTFU period; 13 of 14 participants provided information
Protocol: as §2
Participants received three 2-hour preparatory psychotherapy sessions in order to review the purpose and intention of participation in the study, treatment goals, and structure of the treatment sessions. Medications were administered in 8-hour treatment sessions which included a discussion of the participant's subjective experience with the treatment team to consolidate the memory of the experience and to begin the process of post-integrative psychotherapy. Participants also received three 2-hour post-medication integration sessions (repeated after the second dosing session) to further consolidate the memory of the experience and to continue the process of psychological integration. […]

[6] = system: patients with cancer-related psychiatric and existential distress; test: Existential distress measures (hopelessness, demoralization, death anxiety) combined: effect sizes; type: in vivo, human
Protocol: as §1, §2, §3, §4
Cancer-related existential distress (demoralization, hopelessness, attitudes and effects associated with disease progression and death) was assessed using the following methods: • The Death Anxiety Scale (DAS) (Templer, 1970)—a 15-item measure that has been used most frequently to assess death anxiety. Items are scored “true” and “false” and then scored as one and zero, respectively. Total scores range between 0-15. Higher scores represent increased severity of death anxiety. Scores below eight are considered normative levels of death anxiety. Templer (1970) reported adequate test-retest reliability (r=0.83) and validity. • The Hopelessness Assessment in Illness (HAI) (Rosenfeld et al., 2011)—an eight-item instrument developed for use in patients with advanced cancer. Total scores range from 0-16. Higher scores indicate higher levels of hopelessness. Data have not been published regarding recommended clinical cut-off scores for this measure. […]

[7] = system: patients with cancer-related psychiatric and existential distress; test: Demoralization Scale (DS), long-term follow-up; type: in vivo, human; conditions: single 0.3 mg/kg dose with psychotherapy, baseline 31.88, p < 0.001 vs baseline
Protocol: as §1, §2
as §3, with “Each therapy dyad underwent six confidential one-to-one sessions to build their alliance and exchange ideas about psychedelic therapy. The trial employed a crossover design at seven weeks following the first drug administration, with an outcome assessment at 6.5 months (26 weeks) following the second drug administration (i.e. after the crossover).” left out
as §5

[8] = mean score at 6.5-8 months, p < 0.001 vs baseline

CN(C)CCc1c[nH]c2cccc(OP(=O)(O)O)c12 [psilocybin, [3-(2-dimethylaminoethyl)-1H-indol-4-yl] dihydrogen phosphate]
STAI State Anxiety ([1]; mean score at 3.2 years, p < 0.01 vs baseline): 33.00 | STAI State Anxiety ([1]; mean score at 4.5 years, p < 0.05 vs baseline): 34.41 | STAI Trait Anxiety ([1]; mean score at 4.5 years, p < 0.01 vs baseline): 35.78 | STAI State Anxiety [1, 8]: 29.84 | STAI Trait Anxiety [1, 8]: 28.23 | patients meeting criteria for clinically significant antidepressant or anxiolytic responses ([2]; final 6.5 month follow up point, 0.3 mg/kg with psychotherapy): 60-80% | time post dosing up to which rapid and sustained anxiolytic and antidepressant effects were seen ([2]; single dosing session 0.3 mg/kg with psychotherapy): up to 7 weeks | participants appraising the psilocybin session as increasing life satisfaction or wellbeing [3]: 86% | participants rating the psilocybin experience the single or top-five most personally meaningful experience(s) of their lives [3]: Seventy-one | participants rating the psilocybin experience the single or top-five most spiritually significant experience(s) of their lives [3]: ninety-six | volunteers reporting moderate, strong or extreme positive behavioral change attributed to the psilocybin experience [3]: 100% | correlation (r) of length of time between psilocybin session and follow-up with HAI hopelessness change score ([4]; Spearman, second LTFU subtracted from two-weeks post-psilocybin dose scores, p<0.01): 0.69 | Hopelessness ([4]; mean score at 3.2 years): 2.29 | Hopelessness ([4]; mean score at 4.5 years): 1.65 | Hopelessness ([4]; mean score at 6.5-8 months): 1.65 | lasting negative or adverse effects from the psilocybin-assisted therapy experiences [5]: None of the participants reported lasting negative or adverse effects | mean Cohen's d, reductions in hopelessness, demoralization and death anxiety since baseline ([6]; 6.5-month point): 1.39 | range of Cohen's d, hopelessness, demoralization and death anxiety ([6]; 6.5-month point): 0.88-2.00 | mean Cohen's d, reductions in hopelessness, demoralization and death anxiety since baseline ([6]; first LTFU (mean 3.2 years)): 1.39 | range of Cohen's d, hopelessness, demoralization and death anxiety ([6]; first LTFU (mean 3.2 years)): 0.80-1.77 | mean Cohen's d, reductions in hopelessness, demoralization and death anxiety since baseline ([6]; second LTFU (mean 4.5 years)): 1.60 | range of Cohen's d, hopelessness, demoralization and death anxiety ([6]; second LTFU (mean 4.5 years)): 1.00-2.00 | Demoralization ([7]; mean score at 3.2 years): 13.29 | Demoralization ([7]; mean score at 4.5 years): 14.32 | Demoralization ([7]; mean score at 6.5-8 months): 16.84
